For this assay, the system named is CAL51 cell proliferation. Put plainly: Cell Titer Glo Proliferation Assay (CAL51). In kind it is cell-based, human. As to conditions: Homo sapiens, CAL-51; CAL51 cell proliferation, 72 h, Cell Titer Glo luminescence; read-out: Act. Level. An outline of the steps:
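Viability is measured by CellTiter-Glo luminescence after 72 h of compound exposure. CAL51 cells were seeded in growth medium with 10% FBS and 2 mM glutamine, cultured overnight, then dosed with compound dilutions, vehicle held at 0.2% DMSO.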
On the technique in general: ATP-based viability assays read luminescence as a measure of living cells.

`COc1cc(C(=O)N2CCC(F)(F)CC2)ccc1Nc1nc(OC2CCCC2)c2c(-c3ccc4nc(C)oc4c3)c[nH]c2n1` [Example 289, (4-(4-(cyclopentyloxy)-5-(2-methylbenzo[d]oxazol-6-yl)-7H-pyrrolo[2,3-d]pyrimidin-2-ylamino)-3-methoxyphenyl)(4,4-difluoropiperidin-1-yl)methanone]: the IC50 is 100 to 400 nM.

Consider `CNC(=O)c1ccc(Nc2nc(OC3CCOCC3)c3c(-c4ccc5nc(C)oc5c4)c[nH]c3n2)c(OC)n1` [Example 183, 6-methoxy-N-methyl-5-(5-(2-methylbenzo[d]oxazol-6-yl)-4-(tetrahydro-2H-pyran-4-yloxy)-7H-pyrrolo[2,3-d]pyrimidin-2-yalmino)picolinamide], for which the IC50 fell in the range of 100 to 400 nM.

Regarding `CNCCOc1nc(Nc2ccc(C(=O)NC)cc2OC)nc2[nH]cc(-c3ccc4nc(C)oc4c3)c12` [Example 138, 3-methoxy-N-methyl-4-(4-(2-(methylamino)ethoxy)-5-(2-methylbenzo[d]oxazol-6-yl)-7H-pyrrolo[2,3-d]pyrimidin-2-ylamino)benzamide], the IC50 was 1000 to 10000 nM.

As for `Cc1nc2ccc(-c3c[nH]c4nc(Nc5cn(C)nc5C)nc(OC5CCCC5)c34)cc2o1` [Example 307, 4-(cyclopentyloxy)-N-(1,3-dimethyl-1H-pyrazol-4-yl)-5-(2-methylbenzo[d]oxazol-6-yl)-7H-pyrrolo[2,3-d]pyrimidin-2-amine], the IC50 was less than 100 nM.

Turning to `CNC(=O)c1ccc(Nc2nc(OCCO)c3c(-c4ccc5nc(C)oc5c4)c[nH]c3n2)c(OC)c1` [Example 168, 4-(4-(2-hydroxyethoxy)-5-(2-methylbenzo[d]oxazol-6-yl)-7H-pyrrolo[2,3-d]pyrimidin-2-ylamino)-3-methoxy-N-methylbenzamide], the IC50 was less than 100 nM.

For the compound `CNC(=O)c1ccc(Nc2nc(OC3CCOCC3)c3c(-c4ccc(S(C)(=O)=O)cc4)c[nH]c3n2)c(C)c1` [Example 158, N,3-dimethyl-4-(5-(4-(methylsulfonyl)phenyl)-4-(tetrahydro-2H-pyran-4-yloxy)-7H-pyrrolo[2,3-d]pyrimidin-2-ylamino)benzamide], the IC50 was 400 to 1000 nM.

For the compound `CNC(=O)c1ccc(Nc2nc(OC3CCCC3)c3c(-c4ccc(O)c(C)c4)c[nH]c3n2)c(OC)c1` [Example 43, 4-(4-(cyclopentyloxy)-5-(4-hydroxy-3-methylphenyl)-7H-pyrrolo[2,3-d]pyrimidin-2-ylamino)-3-methoxy-N-methylbenzamide], the IC50 is less than 100 nM.

With `CNC(=O)c1ccc(Nc2nc(NC3CCCCC3)c3c(-c4ccc(O)cc4)c[nH]c3n2)c(OC)c1` [Example 36, 4-(4-(cyclohexylamino)-5-(4-hydroxyphenyl)-7H-pyrrolo[2,3-d]pyrimidin-2-ylamino)-3-methoxy-N-methylbenzamide], the IC50 is less than 100 nM.

Turning to `CNC(=O)c1ccc(Nc2nc(OC3CCCC3)c3c(-c4ccc(OC)c(OC)c4)c[nH]c3n2)c(OC)c1` [Example 64, 4-(4-(cyclopentyloxy)-5-(3,4-dimethoxyphenyl)-7H-pyrrolo[2,3-d]pyrimidin-2-ylamino)-3-methoxy-N-methylbenzamide], the IC50 lay within 100 to 400 nM.

Turning to `CNC(=O)c1ccc(Nc2nc(OC)c3c(-c4cn[nH]c4)c[nH]c3n2)c(OC)c1` [Example 129, 3-methoxy-4-(4-methoxy-5-(1H-pyrazol-4-yl)-7H-pyrrolo[2,3-d]pyrimidin-2-ylamino)-N-methylbenzamide], the IC50 was in the range of 100 to 400 nM.

`COc1cc(-c2cnn(C)c2)ccc1Nc1nc(OC2CCCC2)c2c(-c3ccc4nc(C)oc4c3)c[nH]c2n1` [Example 227, 4-(cyclopentyloxy)-N-(2-methoxy-4-(1-methyl-1H-pyrazol-4-yl)phenyl)-5-(2-methylbenzo[d]oxazol-6-yl)-7H-pyrrolo[2,3-d] pyrimidin-2-amine]: the IC50 lay in the range of 100 to 400 nM.

In the case of `C[C@H](O)c1cccc(-c2c[nH]c3nc(Nc4ccc(C(=O)N(C)C)cc4Cl)nc(NC4CCOCC4)c23)c1` [Example 85, (S)-3-chloro-4-(5-(3-(1-hydroxy-ethyl)phenyl)-4-(tetrahydro-2H-pyran-4-ylamino)-7H-pyrrolo[2,3-d]pyrimidin-2-ylamino)-N,N-dimethylbenzamide], the IC50 was less than 100 nM.

For the compound `CNC(=O)c1ccc(Nc2nc(OC(C)C)c3c(-c4ccnc(C)c4)c[nH]c3n2)c(OC)c1` [Example 201, 4-(4-isopropoxy-5-(2-methyl-pyridin-4-yl)-7H-pyrrolo[2,3-d]pyrimidin-2-ylamino)-3-methoxy-N-methylbenzamide], the IC50 was less than 100 nM.

Consider `CNC(=O)c1ccc(Nc2nc(OC3CCCC3)c3c(-c4ccc5c(ccn5C)c4)c[nH]c3n2)c(OC)c1` [Example 78, 4-(4-(cyclopentyloxy)-5-(1-methyl-1H-indol-5-yl)-7H-pyrrolo[2,3-d]pyrimidin-2-ylamino)-3-methoxy-N-methylbenzamide], for which the IC50 lay in the range of 1000 to 10000 nM.

Consider `CNCCNC(=O)c1ccc(Nc2nc(OC3CCOCC3)c3c(-c4ccc5nc(C)oc5c4)c[nH]c3n2)c(OC)c1` [Example 130, 3-methoxy-N-(2-(methylamino)ethyl)-4-(5-(2-methylbenzo[d]oxazol-6-yl)-4-(tetrahydro-2H-pyran-4-yloxy)-7H-pyrrolo [2,3-d]pyrimidin-2-ylamino)benzamide], for which the IC50 lay in the range of 100 to 400 nM.

As to `CNC(=O)c1ccc(Nc2nc(OC3CCCC3)c3c(-c4ccc(-c5nnc[nH]5)cc4)c[nH]c3n2)c(OC)c1` [Example 28, 4-(5-(4-(4H-1,2,4-triazol-3-yl)phenyl)-4-(cyclopentyloxy)-7H-pyrrolo[2,3-d]pyrimidin-2-ylamino)-3-methoxy-N-methylbenzamide], the IC50 was less than 100 nM.

On to `Cc1cc(C(=O)N(C)C)ccc1Nc1nc(OC2CCOCC2)c2c(-c3cncnc3)c[nH]c2n1` [Example 107, N,N,3-trimethyl-4-(5-(pyrimidin-5-yl)-4-(tetrahydro-2H-pyran-4-yloxy)-7H-pyrrolo[2,3-d]pyrimidin-2-ylamino)benzamide], for which the IC50 lay within 100 to 400 nM.

In the case of `CCOc1ccc(-c2c[nH]c3nc(Nc4ccc(C(=O)NC)cc4OC)nc(OC(C)C)c23)cn1` [Example 196, 4-(5-(6-ethoxypyridin-3-yl)-4-isopropoxy-7H-pyrrolo[2,3-d]pyrimidin-2-ylamino)-3-methoxy-N-methylbenzamide], the IC50 was in the range of 100 to 400 nM.

Take `Cc1cc(C(=O)N(C)C)ccc1Nc1nc(OC2CCOCC2)c2c(-c3ccnc(C#N)c3)c[nH]c2n1` [Example 140, 4-(5-(2-cyanopyridin-4-yl)-4-(tetra-hydro-2H-pyran-4-yloxy)-7H-pyrrolo[2,3-d]pyrimidin-2-ylamino)-N,N,3-trimethylbenzamide]: the IC50 is 100 to 400 nM.

As to `CNC(=O)c1ccc(Nc2nc(OC3CCOCC3)c3c(-c4cccc(S(C)(=O)=O)c4)c[nH]c3n2)c(OC)c1` [Example 106, 3-methoxy-N-methyl-4-(5-(3-(methylsulfonyl)phenyl)-4-(tetrahydro-2H-pyran-4-yloxy)-7H-pyrrolo[2,3-d]pyrimidin-2-ylamino)benzamide], the IC50 is less than 100 nM.

These data come from patent US9346812B2, “Substituted pyrrolopyrimidine compounds, compositions thereof, and methods of treatment therewith” (Signal Pharmaceutical LLC, priority 2013, dated 2016).
